Measurements: ChEMBL document CHEMBL6182851, “Discovery of dual CDK4/6 and BRD4 inhibitor as apoptosis and autophagy inducers against NSCLC in vitro and in vivo” (Eur J Med Chem, 2025)
Active and inactive are the calls of the source. The calls are words filed in the database; no cut-off is given here.

How the values were obtained:
NCI-H460 [1] = assay: Induction of autophagy in human NCI-H460 cells assessed as reduction in intracellular AKT protein expression; assay type: functional, cell-based
NCI-H460 [2] = assay: Induction of apoptosis in human NCI-H460 cells assessed as early apoptotic cells at 2 uM incubated for 48 hrs by Annexin V-PE/7-AAD staining based flow cytometric analysis (reference value: 3.58 %); assay type: functional
NCI-H460 [3] = assay: Induction of cell cycle arrest in human NCI-H460 cells assessed as accumulation of cells at G2 phase at 8 uM incubated for 48 hrs by PI staining based flow cytometric analysis (reference value: 11.0 %); assay type: functional
NCI-H460 [4] = assay: Induction of apoptosis in human NCI-H460 cells assessed as late apoptotic cells at 2 uM incubated for 48 hrs by Annexin V-PE/7-AAD staining based flow cytometric analysis (reference value: 3.76 %); assay type: functional
NCI-H460 [5] = assay: Induction of cell cycle arrest in human NCI-H460 cells assessed as accumulation of cells at G1 phase at 8 uM incubated for 48 hrs by PI staining based flow cytometric analysis (reference value: 56.7 %); assay type: functional
NCI-H460 [6] = assay: Induction of autophagy in human NCI-H460 cells assessed as increase in yellow fluorescence incubated for 24 hrs by immunofluorescence analysis; assay type: functional, cell-based; conditions: dose 2-8 µM
[7] = Toxicity in mouse assessed as histological change in lung at 400 mg/kg, ip measured for 21 days by H and E staining based analysis; assay type: organism-based; conditions: in vivo, 504 h, time 21 day
[8] = Apparent volume of distribution in male Sprague-Dawley rat at 5 mg/kg, iv measured up to 24 hrs by LC-MS/MS analysis; assay type: ADME, organism-based; conditions: in vivo, read-out: Vz
NCI-H460 [9] = assay: Induction of autophagy in human NCI-H460 cells assessed as production of autophagic lysosomes at 4 uM incubated for 24 hrs by transmission electron microscopic analysis; assay type: functional, cell-based
NCI-H460 [10] = assay: Induction of cell cycle arrest in human NCI-H460 cells assessed as accumulation of cells at G2 phase at 4 uM incubated for 48 hrs by PI staining based flow cytometric analysis (reference value: 11.0 %); assay type: functional
[11] = C0 in male Sprague-Dawley rat at 5 mg/kg, iv measured up to 24 hrs by LC-MS/MS analysis; assay type: ADME, organism-based; conditions: in vivo
NCI-H460 [12] = assay: Induction of autophagy in human NCI-H460 cells assessed as increase in acidic vesicles incubated for 48 hrs by MDC staining and LC3B immunofluorescence analysis; assay type: functional, cell-based; conditions: dose 2-8 µM
NCI-H460 [13] = assay: Antitumor activity against human NCI-H460 cells xenografted in female BALB/c nude mouse assessed as tumor growth inhibition at 50 mg/kg, ip administered for 21 consecutive days relative to control; assay type: functional; conditions: NCI-H460, 504 h, time 21 day, read-out: TGI
NCI-H460 [14] = assay: Antitumor activity against human NCI-H460 cells xenografted in female BALB/c nude mouse assessed as tumor growth inhibition at 25 mg/kg, ip administered for 21 consecutive days relative to control; assay type: functional; conditions: NCI-H460, 504 h, time 21 day, read-out: TGI
[15] = Toxicity in mouse assessed as animal mortality at 100 to 400 mg/kg, ip measured for 21 days; assay type: organism-based; conditions: in vivo, 504 h, dose 100-400 mg/kg, time 21 day
NCI-H460 [16] = assay: Induction of cell cycle arrest in human NCI-H460 cells assessed as accumulation of cells at S phase at 4 uM incubated for 48 hrs by PI staining based flow cytometric analysis (reference value: 33.3 %); assay type: functional
[17] = Toxicity in mouse assessed as body weight change at 100 to 400 mg/kg, ip measured for 21 days; assay type: organism-based; conditions: in vivo, 504 h, dose 100-400 mg/kg, time 21 day
[18] = AUC (0 to t) in male Sprague-Dawley rat at 5 mg/kg, iv measured up to 24 hrs by LC-MS/MS analysis; assay type: ADME, organism-based; conditions: in vivo
[19] = Toxicity in mouse assessed as histological change in liver at 400 mg/kg, ip measured for 21 days by H and E staining based analysis; assay type: organism-based; conditions: in vivo, 504 h, time 21 day
NCI-H460 [20] = assay: Induction of autophagy in human NCI-H460 cells assessed as increase in autophagosomes incubated for 48 hrs by MDC staining and LC3B immunofluorescence analysis; assay type: functional, cell-based; conditions: dose 2-8 µM
NCI-H460 [21] = assay: Induction of autophagy in human NCI-H460 cells assessed as decrease in P62 expression at 2 to 8 uM incubated for 48 hrs by Western blotting analysis; assay type: functional, cell-based; conditions: dose 2-8 µM
[22] = Clearance in male Sprague-Dawley rat at 5 mg/kg, iv measured up to 24 hrs by LC-MS/MS analysis; assay type: ADME, organism-based; conditions: in vivo
NCI-H460 [23] = assay: Antiproliferative activity against human NCI-H460 cells assessed as reduction in EdU positive cells incubated for 24 hrs by EdU incorporation assay; assay type: functional, cell-based; conditions: dose 2-8 µM
NCI-H460 [24] = assay: Induction of autophagy in human NCI-H460 cells assessed as reduction in intracellular PI3K protein expression; assay type: functional, cell-based
A549 = assay: cells; conditions: Homo sapiens, A549, 48 h
Description: Antitumor activity against human A549 cells assessed as inhibition of cell viability incubated for 48 hrs by MTT assay

NCI-H1299 = assay: cells; conditions: Homo sapiens, NCI-H1299, 48 h
Description: Antitumor activity against human NCI-H1299 cells assessed as inhibition of cell viability incubated for 48 hrs by MTT assay

NCI-H460 [25] = assay: Antitumor activity against human NCI-H460 cells xenografted in female BALB/c nude mouse assessed as suppression of tumor volume at 50 mg/kg, ip administered for 21 consecutive days; assay type: functional, organism-based; conditions: time 21.0 day
NCI-H460 [26] = assay: Induction of autophagy in human NCI-H460 cells assessed as increase in LC3-II expression incubated for 48 hrs by Western blotting analysis; assay type: functional, cell-based; conditions: dose 2-8 µM
[27] = Toxicity in mouse assessed as histological change in spleen at 400 mg/kg, ip measured for 21 days by H and E staining based analysis; assay type: organism-based; conditions: in vivo, 504 h, time 21 day
NCI-H460 [28] = assay: Induction of autophagy in human NCI-H460 cells assessed as reduction in intracellular mTOR protein expression; assay type: functional, cell-based

COc1cc(-c2nc3ccc(F)cc3c(=O)[nH]2)cc(OC)c1OCC(=O)N1CCN(c2ccc(Nc3ncc4cc(C(=O)N(C)C)n(C5CCCC5)c4n3)nc2)CC1
Activity (NCI-H460 [1]): Dose-dependent-effect
Activity (NCI-H460 [2]): 9.06%
Activity (NCI-H460 [3]): 3.41%
Activity (NCI-H460 [4]): 4.55%
Activity (NCI-H460 [5]): 80.8%
Activity (NCI-H460 [6]): Dose-dependent-effect
Activity [7]: Non-toxic
Vd [8]: 14.1 L/kg
Activity (NCI-H460 [9]): Active
Activity (NCI-H460 [10]): 7.15%
C0 at 24 h [11]: 6000 ng/mL
Activity (NCI-H460 [12]): Dose-dependent-effect
inhibition in vivo at 50 mg/kg (NCI-H460 [13]): 85.3%
inhibition in vivo at 25 mg/kg (NCI-H460 [14]): 67.8%
Activity [15]: Non-toxic
Activity (NCI-H460 [16]): 18.8%
Activity [17]: Non-toxic
AUC(0-t) at 24 h [18]: 3780 ng·h/mL
Activity [19]: Non-toxic
Activity (NCI-H460 [20]): Dose-dependent-effect
Activity (NCI-H460 [21]): Active
clearance [22]: 22.3 mL/min/kg
Activity (NCI-H460 [23]): Dose-dependent-effect
Activity (NCI-H460 [24]): Dose-dependent-effect
IC50 (A549): 4.59 µM
IC50 (NCI-H1299): 4.01 µM
Activity (NCI-H460 [25]): Active
Activity (NCI-H460 [26]): Dose-dependent-effect
Activity [27]: Non-toxic
Activity (NCI-H460 [28]): Dose-dependent-effect
